Structures are written as SMILES. “And” between values parts separate entries of the source, which are not always exact repeats. Equal values may be shown once.

The test system of one test is TMD8 tumor xenografts. As to the kind of experiment: NF-κB target gene mRNA in TMD8 tumor xenografts, qRT-PCR. The test is classed as in vivo, mouse. On the procedure: Total RNA extraction from the TMD8 tumor xenografts was performed using 80% TRIzol Reagent (Fisher Scientific, Cat# 15596026) and 20% Chloroform for tissue solubilization. After centrifugation, the supernatant was mixed with equal volume of 70% ETOH followed by RNA isolation using the RNeasy Plus Mini
Kit. RNA was transcribed into cDNA using High-Capacity cDNA Reverse Transcription Kit (Applied Biosystems, Cat# 4368814) according to manufacturer’s instructions. RT-PCR was performed using TaqMan Universal PCR Master Mix (Applied Biosystems, Cat# 4304437) and run on a StepOnePlus Real-Time PCR machine (Applied Biosystems). The following probes from ThermoFisher Scientific were used for qRT-PCR: IL2 TaqMan probe Hs00174114, IL6 TaqMan
For orientation: In qPCR the cycle at which signal appears reflects the starting amount.

The subject of another test is OCI-Ly3 cells. As to the kind of experiment: CellTiter-Glo ATP viability. The test is classed as cell-based, human. On the procedure:
Cell proliferation, viability, and apoptosis assays. […]
Fluorescent Intensity (MFI) was analyzed by FlowJo (version 10.8.0, BD). CellTiter-glo luminescence assay (Promega, Cat# G7570) was used to quantify ATP levels as a surrogate marker of metabolic viability in DLBCL cells treated with compounds for 6-8 days. […]
The percentages of cells in early and late apoptosis were combined for quantification. For CellTrace Violet, CellTiter-glo, and Annexin V apoptosis assays, cell were cultured in media with 50% of the usual serum. […]
(Cellular ATP, detected with luciferase, serves as a proxy for viable cell number.)

In the next test the test system is BJAB cells. Nature of the test: Apoptosis, annexin staining flow cytometry. The class given is cell-based, human. (In general: Flow cytometry measures light scatter and fluorescence of single cells or particles in a stream.)
In another test the test system is TMD8 cells. Nature of the test: cells. Also on record: species or system TMD8 or OCI-Ly3; Inhibition of spontaneous IL-10 secretion from ABC-DLBCL cells, human IL-10 ELISA of supernatants. To be noted: Homo sapiens, TMD8, 20 h; IL-10 secretion; read-out: IC50 (µM) IL-10 inhibition. Here is the method:
Cytokine ELISAs. Cytokines in cell culture supernatants were measured 20-24h after treatment with 0, 0.01, 0.03, 0.1, 0.3, 1, or 3 µM of compounds using the following ELISA kits according to the manufacturer’s instructions: Human IL-2 ELISA (BioLegend Cat# 431804), Human IL-6 ELISA (BioLegend Cat# 430504), and Human IL-10 ELISA (BioLegend Cat# 430604). TMD8 and OCI-Ly3 cells were treated with specific doses of compounds in serum-free media for 20 hours. Jurkat T cells were pretreated with specific doses of compounds for 8 hours in serum-free media, then stimulated with PMA/ionomycin for 16 hours prior to the collection of supernatants. Mouse splenocytes were isolated from spleens of C57/BL6 mice by passing spleens through a 70 micron filter followed by red blood cell lysis using ACK lysing buffer (Quality Biologics, Cat# 118-156-101). […] Supernatant was collected at 24 hours and mouse IL-2 levels were analyzed via ELISA (R&D Systems, Cat# DY402-05). IL-6 and IL-10 are NF-κB–induced cytokines that promote the proliferation and survival of malignant B cells through both autocrine and paracrine mechanisms ([44]), and are negative prognostic factors in ABC-DLBCL ([45], [46]). ABC-DLBCL cell lines spontaneously secrete substantial levels of IL-6 and IL-10, whereas GCB-DLBCL cell lines express only a negligible amount of these cytokines ([24]). […] The IC50 for inhibition of cytokine secretion by each compound in each cell line is reported in Supplemental Table 1.  Figure 4 M1i-124 and M1i-124d1 inhibit MALT1 protease and scaffolding functions, and MALT1-dependent cytokine secretion, in ABC-DLBCL cells. (A and B) Effect of 1 μM compound pretreatment on constitutive RelB cleavage (A) and IκB phosphorylation (B) within TMD8 cells. Representative Western blots are shown along with quantification (mean ± SEM; n = 2). (C) IL6 and IL10 mRNA levels in TMD8 cells treated with 1 μM M1i-124 or M1i-124d1 (mean ± SEM; n = 6). […] Statistical analyses were performed using 1-way ANOVA and Dunnett’s multiple-comparison test. **P < 0.01, ***P < 0.001, ****P < 0.0001.

Test [1] has as its system MALT1 protein in DLBCL cells. Also noted: method as in PMID 30024860, PMID 23238017. To be noted: result in words; cited from earlier work.
Setting [2] is: 24-hour time point, result in words.

As for `O=S(=O)(NCc1ccc2c(c1)OCO2)c1ccc(Cc2ccc(S(=O)(=O)NCc3ccc4c(c3)OCO4)cc2)cc1` [M1i-124], the “IRF4 mRNA level in tumors” value in the test on TMD8 tumor xenografts (setting [2]) is listed as “no effect”. In the test on TMD8 tumor xenografts (setting [2]), the “NFKBID mRNA level in tumors” value is “no effect”. Moreover, the “NFKBIZ mRNA level in tumors” value in the test with TMD8 tumor xenografts (setting [2]) was “did reduce”. Also, in the test on TMD8 tumor xenografts (setting [2]), the “TNFA mRNA level in tumors” value is “did reduce”. For the same molecule, the “IL10 mRNA levels in tumors” value with TMD8 tumor xenografts (24 hours after last dose, result in words) was “not affected”. The “IL6 mRNA level in tumors” value in the test on TMD8 tumor xenografts (24 hours after last dose, vs DMSO, result in words) is “significant decrease”. The “Gene expression by RT-PCR (normalized)” value in the test on TMD8 tumor xenografts (NFKBID) is 0.81 and 0.72 and 0.56 and 0.88 and 1.03 and 0.82 and 0.76 and 0.92. Further, in the test on OCI-Ly3 cells (Homo sapiens, OCI-Ly3 cells, read-out: 50% cytotoxic concentration), the IC50 is about 500 nM. For the same molecule, the “Percent viability (ATP level)” value in the test on OCI-Ly3 cells (OCI-Ly3, M1i-124 (µM) 0.02) was 93.0259% and 81.697% and 95.3842% and 87.3232%; in the test with OCI-Ly3 cells (OCI-Ly3, M1i-124 (µM) 0.05), 107.435% and 78.839% and 101.939% and 104.596%; in the test with OCI-Ly3 cells (OCI-Ly3, M1i-124 (µM) 0.1), 97.8481% and 79.4097% and 92.5817% and 82.7797%; in the test on OCI-Ly3 cells (OCI-Ly3, M1i-124 (µM) 0.2), 93.5879% and 72.4634% and 88.6927% and 76.6947%; in the test with OCI-Ly3 cells (OCI-Ly3, M1i-124 (µM) 5), 38.3426% and 24.1881% and 19.3497% and 28.4648%. For the same molecule, in the test on OCI-Ly3 cells (result in words), the “viability of OCI-Ly3 cells” value is “dose-dependent decrease in viability”. The “Annexin (% positivity)” value in the test on BJAB cells (BJAB, individual replicates) was 34.8% and 31.55% and 33.15%. Besides, in the test with BJAB cells (result in words), the “apoptosis of BJAB cells” value is recorded as “either no or minimal apoptotic response”.

As to `COc1ccc(CNS(=O)(=O)c2ccc(Cc3ccc(S(=O)(=O)NCc4ccc(OC)cc4)cc3)cc2)cc1` [M1i-124d1], the IC50 in the test on TMD8 cells was 0.2 µM.

In the case of `CN1CCCC(CN2c3ccccc3Sc3ccccc32)C1` (stereo not drawn) [Mepazine, mepazine, reference compound], in test [1], the MALT1 protein level result was “unaffected”.

These data come from PMC11996864, “A small-molecule inhibitor of BCL10-MALT1 interaction abrogates progression of diffuse large B cell lymphoma” (The Journal of Clinical Investigation, 2025).
